From patent US5362497A, “Transdermal therapeutic composition” (priority 1989, dated 1994)

Key:
Assay type in all cases: in vivo, SD rats
[1] = test system: hypertensive reaction induced by angiotensin I; assay: Transdermal absorption test: inhibition of hypertensive reaction induced by angiotensin I in rats
Method: Using 9-week-old male SD rats, the transdermal therapeutic tape (6 mg as compound (I)/rat) was applied to a clipped area (6 cm^2) of the abdominal skin and the area of exposure was covered by the occluded dressing method. The transdermal absorption effect was evaluated daily by monitoring the inhibition rate (%) against hypertensive reaction induced by angiotensin I. Angiotensin I was administered in an intravenous dose of 300 ng/kg (rats).
Using 9-week-old male SD rats, the transdermal therapeutic tape (9 mg as compound (I)/rat) was applied to a clipped area (6 cm^2) of the abdominal skin and the area of exposure was covered by the occluded dressing method.

[2] = Molsidomine concentration in plasma after transdermal application (HPLC)
Method: The above transdermal therapeutic composition was put on a clipped abdomen of male SD rats (7-week-old, 240 to 270 g, 5 heads) and fixed with a surgical tape. After 1, 2, 4, 6 and 24 hours, the blood was collected from the tail vein, and the concentration of molsidomine in the plasma was determined by HPLC.
On the other hand, 0.5 g of molsidomine was dissolved in 3 g of propylene glycol, and 0.35 g of the solution was absorbed into a rayon web of nonwoven fabric and applied to SD rats in the same manner as mentioned above.

[3] = Vinpocetine concentration in plasma after transdermal application (HPLC)
Method: The above transdermal therapeutic composition was put on a clipped abdomen of male SD rats (7-week-old, 240 to 270 g, 4 heads) and fixed with a surgical tape. Just before the administration and after 0.5, 1, 2, 4, 6 and 24 hours, the blood was collected from the tail vein. After the blood was treated with heparin, the plasma was separated. The concentration of vinpocetine in the plasma was determined by HPLC after the plasma was cleaned up by Sep-Pak C18 (Waters).
On the other hand, 0.35 g of 4% aqueous suspension of vinpocetine was absorbed into a web of nonwoven fabric and applied to SD rats in the same manner as mentioned above.

[4] = TRH concentration in plasma after transdermal application (radioimmunoassay); settings: for concentration at 0.5 h: 0.5 h after administration; for concentration at 1 h: 1 h after administration; for concentration at 2 h: 2 h after administration; for concentration at 4 h: 4 h after administration; for concentration at 6 h: 6 h after administration
Method: The above transdermal therapeutic composition was put on a clipped abdomen of male SD rats (7-week-old, 240 to 270 g, 4 heads) and fixed with a surgical tape. After 0.5, 1, 2, 4, 6 and 24 hours, the blood was collected from the tail vein. After the blood was treated with heparin, 50 μl of a reagent (aqueous solution containing 0.01 g/l of 8-hydroxyquinoline sulfate, 0.15 g/l of EDTA-2Na and 0.05 g/l of Tween 20) was added to 0.5 ml of the blood to separate the plasma. The TRH concentration in the plasma was determined by the below-mentioned radioimmunoassay. To 100 μl of the separated plasma were added 100 μl of 0.7% bovine serum albumin, 100 μl of anti-TRH antibody (500-fold dilution) and 100 μl of ^125 I-labeled TRH (about 10000 dpm), and the resulting mixture was incubated at 4° C. for 3 days. The secondary antibody (100 μl of anti-γ-globulin serum and 100 μl of normal rabbit serum) was then added, and the mixture was incubated at 4° C. for 1 day. The supernatant was removed by centrifugation at 3000 rpm, and the radioactivity of the precipitate was determined by a γ counter.
On the other hand, 10% polyvinyl alcohol gel (pH 4, buffered with 0.01M citric acid-0.01M disodium phosphate) containing 2% TRH was formulated to make the diameter and thickness 3.2 cm and 0.1 cm respectively (sticking area: 8 cm^2; TRH content: 16 mg), and applied to SD rats (4 heads) in the same manner as mentioned above. The TRH concentration in the plasma was determined by the radioimmunoassay in the same manner as mentioned above.

[5] = Example 1 tape, 6 mg as compound (I)/rat
[6] = Example 2 tape, procedure of Example 1
[7] = Example 3 tape, procedure of Example 1
[8] = Example 4 tape, 9 mg as compound (I)/rat
[9] = rat, plasma, topical or ocular, Example 6 composition
[10] = rat, plasma, topical or ocular, comparison: 10% polyvinyl alcohol gel pH 4, 2% TRH (16 mg), 8 cm^2

For O=C(O)CN1C(=O)[C@@H](N[C@@H](CCCCC2CCNCC2)C(=O)O)CSc2ccccc21 [Compound (I), (R)-3-[(S)-1-carboxy-5-(4-piperidyl)pentyl]amino-4-oxo-2,3,4,5-tetrahydro-1,5-benzothiazepine-5-acetic acid], the “duration of effect (inhibition of hypertensive reactivity induced by angiotensin I)” value [1, 5] was greater than 24 h, the transdermal absorption [1, 5] was “sufficiently absorbed transdermally” and the “initiation time of 80% inhibition against hypertensive reactivity induced by angiotensin I” value ([1]; Example 1 tape, 6 mg as compound (I)/rat, abdominal skin 6 cm^2, angiotensin I 300 ng/kg i.v.) was “five”. The “inhibition against hypertensive reactivity induced by angiotensin I” value ([1]; Example 1 tape, 6 mg as compound (I)/rat, five hours after administration) was 80%, the “duration of effect (inhibition of hypertensive reaction by angiotensin I)” value [1, 6] was greater than 24 h and the “initiation time of 80% inhibition against hypertensive reaction by angiotensin I” value [1, 6] was “three”. The transdermal absorption [1, 6] was “sufficiently absorbed transdermally”, the “inhibition against hypertensive reaction by angiotensin I” value ([1]; Example 2 tape, three hours after administration) was 80% and the “inhibition against hypertensive reaction by angiotensin I” value ([1]; Example 3 tape, five hours after administration) was 80%. The “duration of effect (inhibition of hypertensive reaction by angiotensin I)” value [1, 7] was greater than 24 h, the “initiation time of 80% inhibition against hypertensive reaction by angiotensin I” value [1, 7] was “five” and the transdermal absorption [1, 7] was “sufficiently absorbed transdermally”. For the same compound, the “duration of effect (inhibition of hypertensive reactivity by angiotensin I)” value [1, 8] was greater than 24 h, the transdermal absorption [1, 8] was “sufficiently absorbed transdermally” and the “initiation time of 80% inhibition against hypertensive reactivity by angiotensin I” value ([1]; Example 4 tape, 9 mg as compound (I)/rat, abdominal skin 6 cm^2) was “five”. For the same compound, the “inhibition against hypertensive reactivity by angiotensin I” value ([1]; Example 4 tape, 9 mg as compound (I)/rat, five hours after administration) was 80%.

In the case of CCOC(=O)[N-]c1cn(N2CCOCC2)n[o+]1 [molsidomine, N-ethoxycarbonyl-3-morpholinosydnonimine], the “concentration of molsidomine in the blood (in words)” value ([2]; Example 5 composition) is reported as “a high concentration of molsidomine in the blood was observed”, the “concentration of molsidomine in the plasma” value ([2]; comparison: solution of 0.5 g molsidomine in 3 g propylene glycol, 0.35 g on nonwoven fabric) is reported as “below the detection limit” and the concentration at 1 h ([2]; rat, plasma, topical or ocular, Example 5 composition, 1 h after administration) is reported as 123 ng/mL. The concentration at 2 h ([2]; rat, plasma, topical or ocular, Example 5 composition, 2 h after administration) was 235 ng/mL, the concentration at 4 h ([2]; rat, plasma, topical or ocular, Example 5 composition, 4 h after administration) was 451 ng/mL and the concentration at 6 h ([2]; rat, plasma, topical or ocular, Example 5 composition, 6 h after administration) was 322 ng/mL. It also gave a concentration at 24 h ([2]; rat, plasma, topical or ocular, Example 5 composition, 24 h after administration) of 169 ng/mL.

With CCOC(=O)C1=C[C@]2(CC)CCCN3CCc4c(n1c1ccccc41)[C@@H]32 [vinpocetine, apovincamic acid ethyl ester] the “concentration of vinpocetine in the plasma (in words)” value ([3]; Example 7 composition) was “rapidly increased, and the required concentration was maintained during a period of 24 hours”, the “Average concentration in plasma” value ([3]; Example 7 composition, just before administration) was 0 ng/mL and the “concentration of vinpocetine in the plasma” value ([3]; comparison: 0.35 g of 4% aqueous suspension of vinpocetine on nonwoven fabric) was “below the detection limit”. It also gave a concentration at 0.5 h ([3]; rat, plasma, topical or ocular, Example 7 composition, 0.5 h after administration) of 149 ng/mL, a concentration at 1 h ([3]; rat, plasma, topical or ocular, Example 7 composition, 1 h after administration) of 155 ng/mL and a concentration at 2 h ([3]; rat, plasma, topical or ocular, Example 7 composition, 2 h after administration) of 80.1 ng/mL. For the same compound, the concentration at 4 h ([3]; rat, plasma, topical or ocular, Example 7 composition, 4 h after administration) was 60.7 ng/mL, the concentration at 6 h ([3]; rat, plasma, topical or ocular, Example 7 composition, 6 h after administration) was 74.1 ng/mL and the concentration at 24 h ([3]; rat, plasma, topical or ocular, Example 7 composition, 24 h after administration) was 64.3 ng/mL.

With NC(=O)[C@@H]1CCCN1C(=O)[C@H](Cc1cnc[nH]1)NC(=O)[C@@H]1CCC(=O)N1 [TRH, L-pyroglutamyl-L-histidyl-L-prolinamide] the “TRH concentration in the plasma (in words)” value ([4]; Example 6 composition) was “rapidly increased”, the “TRH concentration in the plasma (in words)” value ([4]; comparison: 10% polyvinyl alcohol gel pH 4, 2% TRH (16 mg), 8 cm^2) was “very low” and the concentration at 0.5 h [4, 9] was 59 ng/mL. The concentration at 1 h [4, 9] was 88.9 ng/mL, the concentration at 2 h [4, 9] was 110 ng/mL and the concentration at 4 h [4, 9] was 391 ng/mL. For the same compound, the concentration at 6 h [4, 9] was 326 ng/mL, the concentration at 24 h ([4]; rat, plasma, topical or ocular, Example 6 composition, 24 h after administration) was 82.4 ng/mL and the Cmax ([4]; rat, plasma, topical or ocular, Example 6 composition, read-out: maximum concentration in the plasma) was roughly 400 ng/mL. The Tmax ([4]; rat, plasma, topical or ocular, Example 6 composition, read-out: time of maximum concentration in the plasma) was 4 h, the concentration at 0.5 h [4, 10] was 8.3 ng/mL and the concentration at 1 h [4, 10] was 8 ng/mL. For the same compound, the concentration at 2 h [4, 10] was 4.5 ng/mL, the concentration at 4 h [4, 10] was 3 ng/mL and the concentration at 6 h [4, 10] was 1.8 ng/mL.
